Our source for the IC50 values is paper PMC9416303, “Two New Picoline-Derived Meroterpenoids with Anti-Acetylcholinesterase Activity from Ascidian-Derived Fungus Amphichorda felina” (Molecules, 2022).

This test deals with acetylcholinesterase (AChE) (Electrophorus electricus, UniProt O42275). Put plainly: modified Ellman's colorimetric assay, commercial AChE (Sigma C3389). The class given is biochemical. In general terms: DTNB colorimetry detects thiols as they appear.
Chain of acetylcholinesterase (AChE) (O42275 24-633): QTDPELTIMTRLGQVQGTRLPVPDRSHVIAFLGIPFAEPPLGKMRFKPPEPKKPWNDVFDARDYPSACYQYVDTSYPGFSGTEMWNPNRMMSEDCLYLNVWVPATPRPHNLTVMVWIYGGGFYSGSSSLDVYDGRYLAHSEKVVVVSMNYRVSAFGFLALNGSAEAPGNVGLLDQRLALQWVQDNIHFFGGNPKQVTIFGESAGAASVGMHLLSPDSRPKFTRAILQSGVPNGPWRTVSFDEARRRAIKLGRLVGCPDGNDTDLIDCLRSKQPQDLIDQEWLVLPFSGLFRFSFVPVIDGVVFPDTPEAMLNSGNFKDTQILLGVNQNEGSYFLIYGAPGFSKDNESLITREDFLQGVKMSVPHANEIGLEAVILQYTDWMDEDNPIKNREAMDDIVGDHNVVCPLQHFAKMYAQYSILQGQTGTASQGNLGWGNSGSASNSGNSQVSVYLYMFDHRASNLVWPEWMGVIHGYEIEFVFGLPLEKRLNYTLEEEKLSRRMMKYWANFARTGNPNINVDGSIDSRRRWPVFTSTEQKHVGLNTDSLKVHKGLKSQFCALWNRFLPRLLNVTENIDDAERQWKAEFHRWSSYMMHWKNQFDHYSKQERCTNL

Broadly, the IC50 is the point on the concentration scale where inhibition reaches its midpoint. Read a low IC50 as greater potency in that assay. For the compound `C[C@H]1COC(c2cc3c(cn2)OC(C)(C)[C@H](O)C3)=CC1=O` [compound 1, Amphichoterpenoid D], inhibition was half-maximal at 12.5 µM (IC50).
Under `C[C@@H]1COC(c2cc3c(cn2)OC(C)(C)[C@H](O)C3)=CC1=O` [compound 2, Amphichoterpenoid E] stands 11.6 µM.
